Measured values from article PMC5581131, “The novel sphingosine-1-phosphate receptors antagonist AD2900 affects lymphocyte activation and inhibits T-cell entry into the lymph nodes” (Oncotarget, 2017).

Columns and labels:
[1] = tested on: S1P1 expression on PBMCs; experiment: S1P1 cell surface expression on PBMCs, FACS; type: cell-based, human
Method: Among the S1P receptors, S1P1 is the most widespread receptor in the immune system and is expressed by several cell populations. […] Since AD2900 functions as an antagonist on S1P1, we next checked whether AD2900 affects S1P1 expression on PBMCs; FTY720 and SEW2817 were used as positive controls. The percentage of cells expressing S1P1 on their cell surface was detected by FACS analysis and was calculated as % of expression in non-treated cells. Low doses of AD2900 led to a decreased number of S1P1-expressing PBMCs after a 30-min treatment (Figure 3A and Supplementary Figure 2C). […] The highest effect was obtained at 100 nM with a mean of 51% ± 9% expression as compared to untreated control PBMCs.
Figure 3 AD2900 downregulates the percentage of S1P1- and CCR7-expressing cells in PBMCs (A, B) The percentages of S1P1-positive PBMCs after the treatment with different concentrations of AD2900, FTY720, or SEW2871 and at different time points were examined by FACS analysis. S1P1 expression was tested in PBMCs after a 30-min treatment with AD2900 at different concentrations (A) or after a 30-min or 60-min treatment with 100 nM AD2900, FTY720, or SEW2871 (B). (C) The percentage of CCR7-positive PBMCs was tested by FACS analysis after a 30-min treatment with 100 nM AD2900, FTY720, or SEW2871. All the significances are compared to untreated PBMCs. Results summarize the results of at least four independent experiments. Results of Student’s t-test: *(P < 0.05, two-tailed test), ** (P < 0.01, two-tailed test), *** (P < 0.001, two-tailed test), **** (P < 0.0001, two-tailed test).
Human PBMCs: For the apoptosis test, anti-AnnexinV-FITC (BD Biosciences, CA, USA) was used. To analyze S1P1 surface expression on AD2900-treated PBMCs, the following were used: anti-S1P1 (Alomone labs, Israel), anti-EDG-1 (Abcam, UK), Dylight405-conjugated AffiniPure Goat Anti-Rabbit lgG (H + L), and APC-conjugated AffiniPure F(ab')2 Goat Anti-Rabbit lgG(H + L) (Jackson ImmonoResearch, USA). For CCR7 expression, we used anti-CCR7-APC (Biolegend, CA, USA).

[2] = tested on: C57BL/6 mice; experiment: CCR7-positive T-cell population in vivo, FACS; set-up: species or system mouse
Excerpt: The S1P gradient is a crucial factor for lymphocytes to egress from lymphoid tissues and re-enter the circulation. […] To identify whether the effect of AD2900 on T-cell localization may be mediated by an influence on S1P1 and CCR7 expression, we tested the percentage of S1P1- and CCR7-positive T-cell populations in the blood, spleen, and lymph node in each mouse after a 2-day treatment with AD2900. The percentage of cells expressing S1P1 or CCR7 on their cell surface was detected by FACS analysis and was calculated as % of expressing population in non-treated animals. […] AD2900 elevates the S1P1-expressing population in the blood and spleen, whereas it reduces this population in the lymph nodes. […] In the lymph nodes, the […] population was not affected by AD2900 treatment (Figure 7F).
Figure 7 The influence of AD2900 on S1P1- and CCR7-positive T-cell populations in blood, spleen, and peripheral lymph nodes C57BL/6 mice were orally administered with 1.8, 2.7, and 3.6 mg/l AD2900 or 1.8 mg/l FTY720 for 2 days, as shown in Figure 4. Leukocytes from blood, spleen, and pLNs were collected and stained with CD3e and S1P1 or CCR7 fluorescent antibodies and then analyzed by FACS analysis. The percentages of S1P1+ CD3e+ T cells from blood (A), spleen (B), and pLNs (C) are shown. The percentages of CCR7+ CD3e+ T cells from blood (D), spleen (E), and pLNs (F) are shown. All the significances are compared to untreated healthy mice. Results summarize at least three independent experiments. Results of Student’s t-test:*(P < 0.05, two-tailed test), ** (P < 0.01, two-tailed test), *** (P < 0.001, two-tailed test), **** (P < 0.0001, two-tailed test).
Murine lymphocytes: The phenotype of murine lymphocytes was analyzed by flow cytometry using anti-CD3e-FITC, anti-CD19-PB, anti-CCR7-APC, anti-CD44-FITC, anti-CD62L-APC, and anti-TCR-β-PB (Biolegend, CA, USA).
C57BL/6 female mice aged 7–8 weeks were obtained from Harlan Laboratories (Jerusalem, Israel). The animal study was conducted under appropriate conditions and was approved by the Institutional Animal Care and Use Committee of the Hebrew University of Jerusalem in accordance with the national laws and regulations for the protection of animals. AD2900 was dissolved in 10% BSA (MP Biomedicals, CA, USA) in DDW at 1 mg/ml and then further diluted in 200 ml water to get final concentrations at 1.8, 2.7, or 3.6 mg/l. AD2900 and FTY720 were supplied ad libitum to the mice for 2 days or 7 days. At the end of the experiment, blood was collected, and the mice were sacrificed and tissues (lymph nodes and spleen) were harvested.

| Structure (SMILES) | effect on S1P1 cell surface expression, 30-min versus 60-min treatment ([1]; 100 nM) | reduction of the CCR7 population in murine blood, spleen, and lymph nodes ([2]; 1.8 mg/l, 2 days) | S1P1 expression as compared to untreated control PBMCs ([1]; 100 nM, 30-min treatment, highest effect) | S1P1 expression level ([1]; 4000 nM, 30-min treatment) | concentrations that significantly and dose-dependently decreased S1P1 expression ([1]; 30-min treatment) [nM] | decrease of CCR7-positive T cells in the blood, of the normal expression levels ([2]; 1.8 mg/l, 2-day treatment) | decrease of CCR7-positive T cells in the blood, of the normal expression levels ([2]; 2.7 mg/l, 2-day treatment) | decrease of the S1P1 population, spleen T cells (Figure 7E) ([2]; 3.6 mg/l (highest dose), 2-day treatment) | S1P1 population in the lymph nodes (Figure 7F) ([2]; 2-day treatment) |
| --- | --- | --- | --- | --- | --- | --- | --- | --- | --- |
| CCCCCCCCc1ccc(CCC(N)(CO)CO)cc1 [FTY720, Fingolimod, reference compound] | smaller reduction of S1P1 cell surface expression, but its effect was not reversed after a 60-min treatment | 15%–20% | – | – | – | – | – | – | – |
| CCCCCCCCCCCCCCCCNC(CO)(CO)CO [AD2900] | transient and reversed shortly after a 60-min treatment | – | 51% ± 9% | returned to that of untreated control | 25 to 2000 | 21% ± 5% | 15% ± 4% | 12% ± 4% | not affected |
